In patent US11970494B2, “6-heteroaryloxy benzimidazoles and azabenzimidazoles as JAK2 inhibitors” (Ajax Therapeutics, Inc., priority 2021, dated 2024):

Each compound was assayed against T1, JAK2 (JH1 domain-catalytic, Y1007F,Y1008F) kinase (Homo sapiens, UniProt O60674, Y1007F/Y1008F) (assay: JAK2 Binding Assay (JAK2 JH1 Domain Binding Assay)). Settings: not given.
T1 construct: made in house; host or cells: transiently transfected HEK293 cells
T1 sequence (O60674 849-1124 Y1007F/Y1008F limits assumed): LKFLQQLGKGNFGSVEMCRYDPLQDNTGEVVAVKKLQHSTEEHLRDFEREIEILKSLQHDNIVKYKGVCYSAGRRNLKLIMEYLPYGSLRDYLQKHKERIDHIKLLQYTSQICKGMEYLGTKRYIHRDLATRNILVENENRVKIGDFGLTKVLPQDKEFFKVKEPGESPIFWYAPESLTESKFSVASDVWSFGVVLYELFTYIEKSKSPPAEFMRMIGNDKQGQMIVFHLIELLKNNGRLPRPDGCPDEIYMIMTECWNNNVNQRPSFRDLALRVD

Row | Compound | Kd [nM]
1 | Cn1cc(C(F)(F)F)cc(Nc2nc3ncc(Oc4ccnc(NC(=O)CF)c4)c(Cl)c3n2C)c1=O [Example I-76, N-(4-((7-chloro-1-methyl-2-((1-methyl-2-oxo-5-(trifluoromethyl)-1,2-dihydropyridin-3-yl)amino)-1H-imidazo[4,5-b]pyridin-6-yl)oxy)pyridin-2-yl)-2-fluoroacetamide] | < 10
2 | Cn1cc(C(F)(F)F)cc(Nc2nc3ncc(Oc4ccnc(NC(=O)CF)c4)c(C#N)c3n2C)c1=O [Example I-84, N-(4-((7-cyano-1-methyl-2-((1-methyl-2-oxo-5-(trifluoromethyl)-1,2-dihydropyridin-3-yl)amino)-1H-imidazo[4,5-b]pyridin-6-yl)oxy)pyridin-2-yl)-2-fluoroacetamide] | < 10

Same assay, conditions: JAK2 JH1 domain binding, qPCR detection; read-out: JAK2 Kd

Row | Compound | Kd [nM]
3 | COC(=O)Nc1cc(Oc2cnc3nc(Nc4cc5n(n4)CCN5C(C)(C)C)n(C)c3c2C#N)ccn1 [Example I-71, methyl(4-((2-((1-(tert-butyl)-2,3-dihydro-1H-imidazo[1,2-b]pyrazol-6-yl)amino)-7-cyano-1-methyl-1H-imidazo[4,5-b]pyridin-6-yl)oxy)pyridin-2-yl)carbamate] | < 10
4 | CNC(=O)Nc1cc(Oc2cnc3nc(Nc4cc5n(n4)CCN5C(C)(C)C)n(C)c3c2C#N)ccn1 [Example I-72, 1-(4-((2-((1-(tert-butyl)-2,3-dihydro-1H-imidazo[1,2-b]pyrazol-6-yl)amino)-7-cyano-1-methyl-1H-imidazo[4,5-b]pyridin-6-yl)oxy)pyridin-2-yl)-3-methylurea] | < 10
5 | CN(C)C(=O)Nc1cc(Oc2cnc3nc(Nc4cc5n(n4)CC(C)(C)OC5)n(C)c3c2C#N)ccn1 [Example I-73, 3-(4-((7-cyano-2-((6,6-dimethyl-6,7-dihydro-4H-pyrazolo[5,1-c][1,4]oxazin-2-yl)amino)-1-methyl-1H-imidazo[4,5-b]pyridin-6-yl)oxy)pyridin-2-yl)-1,1-dimethylurea] | 10 to 50
6 | Cn1cc(C(F)(F)F)cc(Nc2nc3ncc(Oc4ccnc(NC(=O)C[C@H]5CCCCO5)c4)c(C#N)c3n2C)c1=O [Example I-74-b] | < 10
7 | CC(=O)Nc1cc(Oc2cnc3nc(Nc4cc(C(F)(F)F)cn(C)c4=O)n(C)c3c2)ccn1 [Example I-77, N-(4-((1-methyl-2-((1-methyl-2-oxo-5-(trifluoromethyl)-1,2-dihydropyridin-3-yl)amino)-1H-imidazo[4,5-b]pyridin-6-yl)oxy)pyridin-2-yl)acetamide] | < 10
8 | COc1c(Oc2ccnc(NC(C)=O)c2)cnc2nc(Nc3cc(C(F)(F)F)cn(CCO)c3=O)n(C)c12 [Example I-80, N-(4-((2-((1-(2-hydroxyethyl)-2-oxo-5-(trifluoromethyl)-1,2-dihydropyridin-3-yl)amino)-7-methoxy-1-methyl-1H-imidazo[4,5-b]pyridin-6-yl)oxy)pyridin-2-yl)acetamide] | < 10
9 | CC(=O)Nc1cc(Oc2cnc3nc(Nc4cc(C(F)(F)F)cn(CCO)c4=O)n(C)c3c2C#N)ccn1 [Example I-81] | < 10
10 | [2H]C([2H])([2H])n1cc(C(F)(F)F)cc(Nc2nc3ncc(Oc4ccnc(NC(C)=O)c4)c(Cl)c3n2C)c1=O [Example I-82, N-(4-((7-chloro-1-methyl-2-((1-(methyl-d3)-2-oxo-5-(trifluoromethyl)-1,2-dihydropyridin-3-yl)amino)-1H-imidazo[4,5-b]pyridin-6-yl)oxy)pyridin-2-yl)acetamide] | < 10
11 | [2H]C([2H])([2H])n1cc(C(F)(F)F)cc(Nc2nc3ncc(Oc4ccnc(NC(C)=O)c4)c(C#N)c3n2C)c1=O [Example I-83, N-(4-((7-cyano-1-methyl-2-((1-(methyl-d3)-2-oxo-5-(trifluoromethyl)-1,2-dihydropyridin-3-yl)amino)-1H-imidazo[4,5-b]pyridin-6-yl)oxy)pyridin-2-yl)acetamide] | < 10
12 | COCCNCC(=O)Nc1cc(Oc2cnc3nc(Nc4cc(C(F)(F)F)cn(C)c4=O)n(C)c3c2Cl)ccn1 [Example I-85, N-(4-((7-chloro-1-methyl-2-((1-methyl-2-oxo-5-(trifluoromethyl)-1,2-dihydropyridin-3-yl)amino)-1H-imidazo[4,5-b]pyridin-6-yl)oxy)pyridin-2-yl)-2-((2-methoxyethyl)amino)acetamide] | < 10
13 | Cn1cc(C(F)(F)F)cc(Nc2nc3ncc(Oc4ccnc(NC(=O)CO)c4)c(Cl)c3n2C)c1=O [Example I-86, N-(4-((7-chloro-1-methyl-2-((1-methyl-2-oxo-5-(trifluoromethyl)-1,2-dihydropyridin-3-yl)amino)-1H-imidazo[4,5-b]pyridin-6-yl)oxy)pyridin-2-yl)hydroxyacetamide] | < 10
14 | Cn1cc(C(F)(F)F)cc(Nc2nc3ncc(Oc4ccnc(NC(=O)CNCCF)c4)c(Cl)c3n2C)c1=O [Example I-87, N-(4-((7-chloro-1-methyl-2-((1-methyl-2-oxo-5-(trifluoromethyl)-1,2-dihydropyridin-3-yl)amino)-1H-imidazo[4,5-b]pyridin-6-yl)oxy)pyridin-2-yl)-2-((2-fluoroethyl)amino)acetamide] | < 10
15 | Cn1c(Nc2cc(C(F)(F)F)cn(CCO)c2=O)nc2ncc(Oc3ccnc(NC(=O)C4CC4)c3)c(C#N)c21 [Example I-89, N-(4-((7-cyano-2-((1-(2-hydroxyethyl)-2-oxo-5-(trifluoromethyl)-1,2-dihydropyridin-3-yl)amino)-1-methyl-1H-imidazo[4,5-b]pyridin-6-yl)oxy)pyridin-2-yl)cyclopropanecarboxamide] | < 10
16 | CC(=O)Nc1cc(Oc2cnc3nc(Nc4cc5n(n4)CCCC5(F)F)n(C)c3c2Cl)ccn1 [Example I-92, N-(4-((7-chloro-2-((4,4-difluoro-4,5,6,7-tetrahydropyrazolo[1,5-a]pyridin-2-yl)amino)-1-methyl-1H-imidazo[4,5-b]pyridin-6-yl)oxy)pyridin-2-yl)acetamide] | < 10
17 | CC(=O)Nc1cc(Oc2cnc3nc(Nc4cc5n(n4)CCCC5(F)F)n(C)c3c2C#N)ccn1 [Example I-93, N-(4-((7-cyano-2-((4,4-difluoro-4,5,6,7-tetrahydropyrazolo[1,5-a]pyridin-2-yl)amino)-1-methyl-1H-imidazo[4,5-b]pyridin-6-yl)oxy)pyridin-2-yl)acetamide] | < 10
18 | CC(=O)Nc1cc(Oc2cnc3nc(Nc4ccc(CN(C)C)c(C(F)(F)F)c4)n(C)c3c2Cl)ccn1 [Example I-94, N-(4-((7-chloro-2-((4-((dimethylamino)methyl)-3-(trifluoromethyl)phenyl)amino)-1-methyl-1H-imidazo[4,5-b]pyridin-6-yl)oxy)pyridin-2-yl)acetamide] | < 10
19 | CC(=O)Nc1cc(Oc2cnc3nc(Nc4cc(OC[C@@H]5CCCN5C)cc(C(F)(F)F)c4)n(C)c3c2Cl)ccn1 [Example I-96, (S)-N-(4-((7-chloro-1-methyl-2-((3-((1-methylpyrrolidin-2-yl)methoxy)-5-(trifluoromethyl)phenyl)amino)-1H-imidazo[4,5-b]pyridin-6-yl)oxy)pyridin-2-yl)acetamide] | < 10
20 | CC(=O)Nc1cc(Oc2cnc3nc(Nc4cc(OC[C@H]5CCCN5C)cc(C(F)(F)F)c4)n(C)c3c2Cl)ccn1 [Example I-97, (R)-N-(4-((7-chloro-1-methyl-2-((3-((1-methylpyrrolidin-2-yl)methoxy)-5-(trifluoromethyl)phenyl)amino)-1H-imidazo[4,5-b]pyridin-6-yl)oxy)pyridin-2-yl)acetamide] | < 10
21 | CC(=O)Nc1cc(Oc2cnc3nc(Nc4cc(C(F)(F)F)n(C5CC6(COC6)C5)n4)n(C)c3c2Cl)ccn1 [Example I-98, N-(4-((2-((1-(2-oxaspiro[3.3]heptan-6-yl)-5-(trifluoromethyl)-1H-pyrazol-3-yl)amino)-7-chloro-1-methyl-1H-imidazo[4,5-b]pyridin-6-yl)oxy)pyridin-2-yl)acetamide] | < 10
22 | CC(=O)Nc1cc(Oc2cnc3nc(Nc4cc(O[C@H]5CCN(C)C5)cc(C(F)(F)F)c4)n(C)c3c2Cl)ccn1 [Example I-99, (S)-N-(4-((7-chloro-1-methyl-2-((3-((1-methylpyrrolidin-3-yl)oxy)-5-(trifluoromethyl)phenyl)amino)-1H-imidazo[4,5-b]pyridin-6-yl)oxy)pyridin-2-yl)acetamide] | < 10
23 | CC(=O)Nc1cc(Oc2cnc3nc(Nc4cc(O[C@@H]5CCN(C)C5)cc(C(F)(F)F)c4)n(C)c3c2Cl)ccn1 [Example I-100, (R)-N-(4-((7-chloro-1-methyl-2-((3-((1-methylpyrrolidin-3-yl)oxy)(trifluoromethyl)phenyl)amino)-1H-imidazo[4,5-b]pyridin-6-yl)oxy)pyridin-2-yl)acetamide] | < 10
24 | CC(=O)Nc1cc(Oc2cnc3nc(Nc4cc(COC5CN(C)C5)cc(C(F)(F)F)c4)n(C)c3c2Cl)ccn1 [Example I-101, N-(4-((7-chloro-1-methyl-2-((3-(((1-methylazetidin-3-yl)oxy)methyl)-5-(trifluoromethyl)phenyl)amino)-1H-imidazo[4,5-b]pyridin-6-yl)oxy)pyridin-2-yl)acetamide] | < 10
25 | CC(=O)Nc1cc(Oc2cnc3nc(Nc4cc(OC5CN(C)C5)cc(C(F)(F)F)c4)n(C)c3c2Cl)ccn1 [Example I-103, N-(4-((7-chloro-1-methyl-2-((3-((1-methylazetidin-3-yl)oxy)-5-(trifluoromethyl)phenyl)amino)-1H-imidazo[4,5-b]pyridin-6-yl)oxy)pyridin-2-yl)acetamide] | < 10
26 | CC(=O)Nc1cc(Oc2cnc3nc(Nc4cc(C(C)(C)C(F)(F)F)on4)n(C)c3c2C#N)ccn1 [Example I-104, N-(4-((7-cyano-1-methyl-2-((5-(1,1,1-trifluoro-2-methylpropan-2-yl)isoxazol-3-yl)amino)-1H-imidazo[4,5-b]pyridin-6-yl)oxy)pyridin-2-yl)acetamide] | > 5000
27 | CC(=O)Nc1cc(Oc2cnc3nc(Nc4ccc(CN(C)C)c(C(F)(F)F)c4)n(C)c3c2C#N)ccn1 [Example I-105, N-(4-((7-cyano-2-((4-((dimethylamino)methyl)-3-(trifluoromethyl)phenyl)amino)-1-methyl-1H-imidazo[4,5-b]pyridin-6-yl)oxy)pyridin-2-yl)acetamide] | < 10
